Measurements reported in patent publication US20020137929A1, “1 - (3-heterocyclylphenyl) isothiourea, -isourea, -guanidine and -amidine herbicidal agents” (Intellectual Property Department, BASF Aktiengesellschaft, priority 1998, published 2002).

Tests used:
[1] = tested on: SAGPY (Arrowhead (Pygmaea)); assay: Preemergence weed control under flooded paddy conditions; format: in vivo, Sagittaria pygmaea; conditions: rated 3-4 weeks after treatment
In short: (§1)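 Flooded-pot preemergence screen with silt loam and seeds in the upper 0.5 cm. Dose about 0.0313 to 0.500 kg/ha, delivered into flood water; visual 0-9 score after 3 to 4 weeks.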

[2] = tested on: TRZAWR (Wheat, Winter, cv Riband); assay: Preemergence herbicidal evaluation; format: in vivo, Triticum aestivum; conditions: rated 4-5 weeks after treatment
In short: (§2)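 In this greenhouse assay, monocot and dicot seeds are planted in soil and treated prior to emergence with an aqueous acetone spray (about 0.0156-0.500 kg/ha). Plants are assessed visually against control on a 0-9 scale after 4-5 weeks.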

CYPIR (Rice Flatsedge) = assay: Preemergence weed control under flooded paddy conditions; format: in vivo, Cyperus iria; conditions: rated 3-4 weeks after treatment
In short: as §1

ORYSAT (Rice, Tebonnet) [3] = assay: Rice tolerance to post-transplant applications, flooded paddy conditions (Table IV); format: in vivo, Oryza sativa, (L.) Tebonnet; conditions: in vivo
Text: (§3) Results of herbicide evaluation are expressed on a rating scale (0-9). The scale is based upon a visual observation of plant stand, vigor, malformation, size, chlorosis and overall plant appearance as compared with a control.
Plastic containers containing weeds which are 3 to 5 cm tall and rice seedlings at the 1.5 to 2.5 leaf stage are flooded with water. The water is maintained at 1.5 to 3 cm above the soil surface for the duration of the experiment. Test compounds are applied as aqueous/ acetone mixtures 50/50 v/v directly into the flood water to provide the equivalent of about 0.0313 to 0.500 kg/ha of active ingredient. The treated containers are placed on greenhouse benches and cared for in accordance with conventional greenhouse procedures. Three to four weeks after treatment, the test is terminated and each container is examined and herbicidal effect rated according to the rating system provided in Example 37. The compounds evaluated are reported by compound number given in Example 37.

ORYSAT (Rice, Tebonnet) [4] = assay: Rice tolerance to post-transplant applications, flooded paddy conditions (Table III); format: in vivo, Oryza sativa, (L.) Tebonnet; conditions: in vivo
Method: as §3
The tolerance of transplanted rice to post-transplanted herbicide applications is determined as follows: two ten-day-old rice seedlings (cv. Tebonnet) are transplanted into silt loam soil in 32 oz. plastic containers with a diameter of 10.5 cm and no drainage holes. After transplanting, the containers are flooded and the water level is maintained at 1.5 to 3 cm above the soil surface. Three days after transplanting, the flooded soil surface of the containers is treated with the selected aqueous/acetone 50/50 v/v mixture containing the test compounds to provide the equivalent of about 0.0313 to 0.500 kg/ha of active ingredient. The treated containers are placed on greenhouse benches, watered such that the water level is maintained as stated above, and cared for in accordance with conventional greenhouse procedures. Three to four weeks after treatment, the test is terminated and each container is examined and herbicidal effect rated according to the rating system provided in Example 37. The compounds evaluated are reported by compound number given in Example 37.
Plant species employed in this example are reported by header abbreviation, common name and scientific name.

[5] = tested on: ECHORC (Watergrass (Calif.)); assay: Preemergence weed control under flooded paddy conditions; format: in vivo, Echinochloa oryzoides; conditions: rated 3-4 weeks after treatment
In short: as §1

ABUTH (Velvetleaf) = assay: Preemergence herbicidal evaluation; format: in vivo, Abutilon theophrasti; conditions: rated 4-5 weeks after treatment
In short: as §2

MOOVA (Monochoria) = assay: Postemergence weed control under flooded paddy conditions; format: in vivo, Monochoria vaginalis; conditions: postemergence weeds, rated 3 to 4 weeks after treatment
In short: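 Containers holding 3–5 cm weeds and rice at 1.5–2.5 leaves are flooded to 1.5–3 cm above soil. Compound in 50/50 v/v aqueous/acetone is then added directly to the water, about 0.0313–0.500 kg/ha. Plants are kept in the greenhouse and rated 0–9 visually at 3–4 weeks.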

[6] = rate 0.1250 kg/ha, rating scale 0-9
[7] = rate 0.2500 kg/ha, rating scale 0-9
[8] = rate 0.0156 kg/ha, rating scale 0-9
[9] = rate 0.0313 kg/ha, rating scale 0-9
[10] = rate 0.0625 kg/ha, rating scale 0-9

Row | SMILES | Preemergence herbicidal rating TRZAWR ([2]; rate 0.0156 kg/ha) | Preemergence herbicidal rating TRZAWR ([2]; rate 0.0313 kg/ha) | Preemergence herbicidal rating TRZAWR ([2]; rate 0.0625 kg/ha) | Preemergence herbicidal rating TRZAWR ([2]; rate 0.1250 kg/ha) | Preemergence herbicidal rating TRZAWR ([2]; rate 0.2500 kg/ha) | Preemergence herbicidal rating ABUTH (ABUTH (Velvetleaf); rate 0.0156 kg/ha) | Preemergence herbicidal rating ABUTH (ABUTH (Velvetleaf); rate 0.0313 kg/ha) | Preemergence herbicidal rating ABUTH (ABUTH (Velvetleaf); rate 0.0625 kg/ha) | herbicidal effect rating, SAGPY ([1]; 0.2500 kg/ha) | Preemergence herbicidal rating TRZAWR [2, 6] | Preemergence herbicidal rating TRZAWR [2, 7] | herbicidal effect rating, CYPIR (CYPIR (Rice Flatsedge); 0.2500 kg/ha) | herbicidal effect rating, ORYSAT (rice tolerance) (ORYSAT (Rice, Tebonnet) [4]) | herbicidal effect rating, ECHORC ([5]; 0.2500 kg/ha) | Preemergence herbicidal rating ABUTH (ABUTH (Velvetleaf); [6]) | Preemergence herbicidal rating ABUTH (ABUTH (Velvetleaf); [7]) | Preemergence herbicidal rating TRZAWR [2, 9] | Preemergence herbicidal rating TRZAWR [2, 10] | Preemergence herbicidal rating ABUTH (ABUTH (Velvetleaf); [9]) | Preemergence herbicidal rating ABUTH (ABUTH (Velvetleaf); [10]) | other results
1 | CCOC(=O)CCN1C(=O)CSC1=Nc1cc(-n2c(=O)cc(C(F)(F)F)n(C)c2=O)c(Cl)cc1Cl [Compound 32, Ethyl 2-{{2,4-dichloro-5-[3,6-dihydro-3-methyl-2,6-dioxo-4-(trifluoromethyl)-1(2H)-pyrimidinyl]-phenyl}imino}-4-oxo-3-thiazolidinepropionate] | 0.0 | 0.0 | 0.0 | 0.0 | 1.0 | 0.0 | 2.5 | 1.5 | – | – | – | – | – | – | – | – | – | – | – | – | Herbicidal rating SAGPY ([1]; 0.1250 kg/ha): 0.0; Herbicidal rating SAGPY ([1]; 0.2500 kg/ha): 0.0; Preemergence herbicidal rating TRZAWR ([2]; rate 0.5000 kg/ha): 3.0; Herbicidal rating CYPIR (CYPIR (Rice Flatsedge); 0.1250 kg/ha): 0.0; Herbicidal rating CYPIR (CYPIR (Rice Flatsedge); 0.2500 kg/ha): 0.0; Herbicidal rating ORYSAT (rice tolerance) (ORYSAT (Rice, Tebonnet) [3]): 0.0; Herbicidal rating ORYSAT (rice tolerance) (ORYSAT (Rice, Tebonnet) [4]): 0.0; Herbicidal rating ECHORC ([5]; 0.1250 kg/ha): 3.0; Herbicidal rating ECHORC ([5]; 0.2500 kg/ha): 6.0; Preemergence herbicidal rating ABUTH (ABUTH (Velvetleaf); rate 0.1250 kg/ha): 9.0; Preemergence herbicidal rating ABUTH (ABUTH (Velvetleaf); rate 0.2500 kg/ha): 9.0; Preemergence herbicidal rating ABUTH (ABUTH (Velvetleaf); rate 0.5000 kg/ha): 9.0
2 | Cn1c(C(F)(F)F)cc(=O)n(-c2cc(N=C3SCC(=O)N3CC(=O)OCC#N)c(Cl)cc2F)c1=O [Compound 109, 2-{{2-Chloro-5-[3,6-dihydro-3-methyl-2,6-dioxo-4-(trifluoromethyl)-1(2H)-pyrimidinyl]-4-fluorophenyl}imino}-4-oxo-3-thiazolidineacetic acid, ester with glycolonitrile] | 0.0 | 1.0 | 1.0 | 6.0 | 4.0 | 6.5 | 9.0 | 9.0 | – | – | – | – | – | – | – | – | – | – | – | – | SAGPY herbicidal effect rating ([1]; 0.0313 kg/ha): 4.5; SAGPY herbicidal effect rating ([1]; 0.0625 kg/ha): 7.5; SAGPY herbicidal effect rating ([1]; 0.1250 kg/ha): 9.0; SAGPY herbicidal effect rating ([1]; 0.2500 kg/ha): 9.0; CYPIR herbicidal effect rating (CYPIR (Rice Flatsedge); 0.0313 kg/ha): 5.0; CYPIR herbicidal effect rating (CYPIR (Rice Flatsedge); 0.0625 kg/ha): 7.0; CYPIR herbicidal effect rating (CYPIR (Rice Flatsedge); 0.1250 kg/ha): 9.0; CYPIR herbicidal effect rating (CYPIR (Rice Flatsedge); 0.2500 kg/ha): 9.0; ECHORC herbicidal effect rating ([5]; 0.0313 kg/ha): 9.0; ECHORC herbicidal effect rating ([5]; 0.0625 kg/ha): 9.0; ECHORC herbicidal effect rating ([5]; 0.1250 kg/ha): 9.0; ECHORC herbicidal effect rating ([5]; 0.2500 kg/ha): 9.0; Preemergence herbicidal rating ABUTH (ABUTH (Velvetleaf); rate 0.1250 kg/ha): 9.0; Preemergence herbicidal rating ABUTH (ABUTH (Velvetleaf); rate 0.2500 kg/ha): 9.0; Preemergence herbicidal rating ABUTH (ABUTH (Velvetleaf); rate 0.5000 kg/ha): 9.0; Herbicidal rating MOOVA (MOOVA (Monochoria); Rate 0.0313 kg/ha): 2.0; Herbicidal rating MOOVA (MOOVA (Monochoria); Rate 0.0625 kg/ha): 4.0; Herbicidal rating MOOVA (MOOVA (Monochoria); Rate 0.1250 kg/ha): 9.0; Herbicidal rating MOOVA (MOOVA (Monochoria); Rate 0.2500 kg/ha): 9.0
3 | COc1ccc(CN2C(=O)CSC2=Nc2cc(-n3c(=O)cc(C(F)(F)F)n(C)c3=O)c(F)cc2Cl)cc1OC [Compound 134, 3-{4-Chloro-5-{[3-(3,4-dimethoxybenzyl)-4-oxo-2-thiazolidinylidene]amino}-2-fluorophenyl}-1-methyl-6-(trifluoromethyl)-2,4(1H,3H)-pyrimidinedione] | – | – | – | – | – | – | – | – | 0.0 | 0.0 | 0.0 | 3.0 | 2.0 | 2.0 | 0.0 | 7.0 | – | – | – | – | –
4 | Cn1c(C(F)(F)F)cc(=O)n(-c2cc(N=C3SCC(=O)N3Cc3ccc(S(N)(=O)=O)cc3)c(Cl)cc2F)c1=O [Compound 135, Alpha-{2-{{2-chloro-5-[3,6-dihydro-3-methyl-2,6-dioxo-4-(trifluoromethyl)-1(2H)-pyrimidinyl]-4-fluorophenyl}imino}-4-oxo-3-thiazolidinyl}-p-toluenesulfonamide] | – | – | – | – | – | – | – | – | 6.0 | 0.0 | 1.0 | 7.0 | 0.0 | 9.0 | 6.0 | 8.0 | 0.0 | 0.0 | 0.0 | 3.0 | herbicidal effect rating, SAGPY ([1]; 0.0313 kg/ha): 0.0; herbicidal effect rating, SAGPY ([1]; 0.0625 kg/ha): 3.0; herbicidal effect rating, SAGPY ([1]; 0.1250 kg/ha): 5.0; Preemergence herbicidal rating TRZAWR [2, 8]: 0.0; herbicidal effect rating, CYPIR (CYPIR (Rice Flatsedge); 0.0313 kg/ha): 5.0; herbicidal effect rating, CYPIR (CYPIR (Rice Flatsedge); 0.0625 kg/ha): 6.0; herbicidal effect rating, CYPIR (CYPIR (Rice Flatsedge); 0.1250 kg/ha): 7.0; herbicidal effect rating, ECHORC ([5]; 0.0313 kg/ha): 7.0; herbicidal effect rating, ECHORC ([5]; 0.0625 kg/ha): 7.0; herbicidal effect rating, ECHORC ([5]; 0.1250 kg/ha): 7.0; Preemergence herbicidal rating ABUTH (ABUTH (Velvetleaf); [8]): 0.0
5 | Cn1c(C(F)(F)F)cc(=O)n(-c2cc(N=C3SCC(=O)N3Cc3ccc(Br)cc3)c(Cl)cc2F)c1=O [Compound 148, 3-{5-{[3-(p-Bromobenzyl)-4-oxo-2-thiazolidinyl-idene]amino}-4-chloro-2-fluorophenyl}-1-methyl-6-(trifluoromethyl)-2,4(1H,3H)-pyrimidinedione] | – | – | – | – | – | – | – | – | 4.0 | 0.0 | 0.0 | 7.0 | 0.0 | 9.0 | 4.0 | 4.0 | 0.0 | 0.0 | 0.0 | 1.0 | herbicidal effect rating, SAGPY ([1]; 0.0313 kg/ha): 0.0; herbicidal effect rating, SAGPY ([1]; 0.0625 kg/ha): 3.0; herbicidal effect rating, SAGPY ([1]; 0.1250 kg/ha): 4.0; herbicidal effect rating, CYPIR (CYPIR (Rice Flatsedge); 0.0313 kg/ha): 4.0; herbicidal effect rating, CYPIR (CYPIR (Rice Flatsedge); 0.0625 kg/ha): 4.0; herbicidal effect rating, CYPIR (CYPIR (Rice Flatsedge); 0.1250 kg/ha): 6.0; herbicidal effect rating, ECHORC ([5]; 0.0313 kg/ha): 6.0; herbicidal effect rating, ECHORC ([5]; 0.0625 kg/ha): 7.0; herbicidal effect rating, ECHORC ([5]; 0.1250 kg/ha): 9.0
6 | CSCCN1C(=O)CSC1=Nc1cc(-n2c(=O)cc(C(F)(F)F)n(C)c2=O)c(F)cc1Cl [Compound 157] | – | – | – | – | – | – | – | – | 0.0 | 0.0 | 0.0 | 0.0 | 0.0 | 0.0 | 4.0 | 6.0 | 0.0 | 0.0 | 0.0 | 0.0 | –
